Where two headings read alike, the source gives them in different places.
Test system: HCMV
Type: cell-based
Details: FIG. 7A
How it was run: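 Viral protein levels come from parallel reaction monitoring on a Q Exactive HF: trypsin digests of infected-cell lysates, quantified as summed transition areas, normalized to host control peptides, averaged across peptides per protein. Cells were MRC5 fibroblasts, infected at MOI 3 (HSV-1 or HCMV) after 12 h compound pretreatment, with re-dosing every 24 h.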
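Wherever TRM2 (P16792) protein level is given: each peptide scaled to its average across all runs.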
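Wherever UL29 (P16764) protein level is given: each peptide scaled to its average across all runs.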
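Wherever UL31 (P16848) protein level is given: each peptide scaled to its average across all runs.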
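Wherever UL88 (P16731) protein level is given: each peptide scaled to its average across all runs.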

## Oc1ccc(C=Cc2cc(O)cc(O)c2)cc1 [Resveratrol]
Timepoint 48, IE
  UL122 (P19893) protein level: 0.07155
  UL123 (P13202) protein level: 0.9494
Timepoint 48, L
  CVC1 (P16799) protein level: 0.3339
  GO (P16750) protein level: 0.02075
  IR11 (P16809) protein level: 0.3219
  MCP (P16729) protein level: 0.008603
  SCP (Q7M6N6) protein level: 0.008886
  TRM2 (P16792) protein level: 0.03458
  UL22A (P16845) protein level: 0.2188
  UL25 (P16761) protein level: 0.07603
  UL29 (P16764) protein level: 0.5648
  UL30 (P16765) protein level: 0.14
  UL31 (P16848) protein level: 0.3217
  UL43 (P16781) protein level: 0.06887
  UL52 (P16793) protein level: 0.09774
  UL80 (P16753) protein level: 0.04182
  UL82 (P06726) protein level: 0.2191
  UL88 (P16731) protein level: 0.09401
  UL94 (P16800) protein level: 0.1811
  UL99 (P13200) protein level: 0.09897
  UL103 (P16734) protein level: 0.1489
  UL117 (P16770) protein level: 0.4909
  gL (P16832) protein level: 0.05817
  gM (P16733) protein level: 0.04711
  gN (P16795) protein level: 0.08482
Timepoint 48, LL
  DUT (P16824) protein level: 0.2262
  IR12 (P16810) protein level: 0.2614
  TRM3 (P16732) protein level: 0.02426
  TRX1 (P16783) protein level: 0.01259
  TRX2 (P16728) protein level: 0.01003
  UL24 (P16760) protein level: 0.1046
  UL40 (P16780) protein level: 1.098
  UL47 (P16784) protein level: 0.04257
  UL49 (P16786) protein level: 0.91
  UL69 (P16749) protein level: 0.3024
  UL70 (P17149) protein level: 0.5546
  UL83 (P06725) protein level: 0.03671
  UL132 (P69338) protein level: 0.2027
  US15 (P09718) protein level: 1.334
Timepoint 72, DE
  CVC2 (P16726) protein level: 0.05308
  DBP (P17147) protein level: 0.2031
  HELI (P16736) protein level: 0.7626
  IR01 (P09710) protein level: 0.4495
  NEC2 (P16791) protein level: 0.231
  RIR1 (P16782) protein level: 0.1696
  TRM1 (P16724) protein level: 0.1736
  UL4 (P17146) protein level: 0.1863
  UL26 (P16762) protein level: 0.087
  UL32 (P08318) protein level: 0.09834
  UL34 (P16812) protein level: 0.1945
  UL35 (P16766) protein level: 0.0668
  UL38 (P16779) protein level: 0.6571
  UL44 (P16790) protein level: 0.1077
  UL48 (P16785) protein level: 0.0769
  UL54 (P08546) protein level: 0.8921
  UL71 (P16823) protein level: 0.4201
  UL78 (P16751) protein level: 0.4371
  UL84 (P16727) protein level: 0.1807
  UL95 (P16801) protein level: 0.4887
  UL96 (P16787) protein level: 0.2804
  UL97 (P16788) protein level: 0.2884
  UL98 (P16789) protein level: 0.2614
  UL102 (P16827) protein level: 1.1
  UL104 (P16735) protein level: 0.1108
  UL112/UL113 (P17151) protein level: 0.3912
  UL114 (P16769) protein level: 1.097
  UL119/UL118 (P16739) protein level: 0.2241
  UL128 (P16837) protein level: 0.03713
  US8 (P09730) protein level: 1.041
  US9 (P09729) protein level: 1.966
  US12 (P09721) protein level: 0.2709
  US13 (P09720) protein level: 0.5064
  US14 (P09719) protein level: 0.1413
  US22 (P09722) protein level: 0.5654
  US23 (P09701) protein level: 0.5216
  US24 (P09700) protein level: 0.3422
  gB (P06473) protein level: 0.2078
Timepoint 72, IE
  IRS1 (P09715) protein level: 1.155
  TRS1 (P09695) protein level: 1.081
  UL13 (P16755) protein level: 0.4777
  UL36 (P16767) protein level: 0.8125
  UL37 (P16778) protein level: 0.998
  UL122 (P19893) protein level: 0.0988
  UL123 (P13202) protein level: 0.8573
Timepoint 72, L
  CVC1 (P16799) protein level: 0.4295
  GO (P16750) protein level: 0.03881
  IR11 (P16809) protein level: 0.253
  MCP (P16729) protein level: 0.01144
  SCP (Q7M6N6) protein level: 0.004632
  TRM2 (P16792) protein level: 0.02287
  UL22A (P16845) protein level: 0.2623
  UL25 (P16761) protein level: 0.1265
  UL29 (P16764) protein level: 0.4756
  UL30 (P16765) protein level: 0.1344
  UL31 (P16848) protein level: 0.3595
  UL43 (P16781) protein level: 0.07284
  UL52 (P16793) protein level: 0.1143
  UL76 (P16725) protein level: 0.0261
  UL80 (P16753) protein level: 0.05404
  UL82 (P06726) protein level: 0.2813
  UL87 (P16730) protein level: 0.03862
  UL88 (P16731) protein level: 0.1555
  UL94 (P16800) protein level: 0.2402
  UL99 (P13200) protein level: 0.1374
  UL103 (P16734) protein level: 0.1294
  UL117 (P16770) protein level: 0.3032
  gH (P12824) protein level: 0.1717
  gL (P16832) protein level: 0.07772
  gM (P16733) protein level: 0.06954
  gN (P16795) protein level: 0.07119
Timepoint 72, LL
  IR12 (P16810) protein level: 0.182
  TRM3 (P16732) protein level: 0.02749
  TRX1 (P16783) protein level: 0.01995
  TRX2 (P16728) protein level: 0.01998
  UL24 (P16760) protein level: 0.1072
  UL40 (P16780) protein level: 0.6851
  UL47 (P16784) protein level: 0.08828
  UL49 (P16786) protein level: 1.209
  UL69 (P16749) protein level: 0.3758
  UL70 (P17149) protein level: 0.682
  UL83 (P06725) protein level: 0.03846
  UL132 (P69338) protein level: 0.215
  US15 (P09718) protein level: 0.6869

Reference: patent publication US20240027453A1, “METHOD FOR DETECTION AND QUANTITATIVE MONITORING OF INFECTIONS WITH HERPESVIRUSES” (The Trustees of Princeton University, priority 2020, published 2024)
